# Tested on: FLAP (5-lipoxygenase activating protein)
# Assay: In vitro binding test: displacement of [3H]-7-chloro-3-(5-((3-fluoropyridin-2-yl)methoxy)-2-methylphenyl)-3,4-dihydroquinazolin-2(1H)-one from Sf9 microsome fractions
# Parameters: species or system human and mouse
# Details: Sf9 microsome fractions expressing FLAP; 100% = radioligand binding with 10 μM sodium 3-(3-(tert-butylsulfanyl)-1-(4-chlorobenzyl)-5-isopropyl-1H-indol-2-yl)-2,2-dimethylpropanoate, 0% = DMSO; test compound concentration not given
# How it was run: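 Sf9 microsomes expressing human or mouse FLAP (2 μg/mL) preincubated with compound 10 min at room temperature, then 120 nM tritiated quinazolinone ligand added for 60 min; buffer 100 mM Tris-HCl pH 7.5 with NaCl, EDTA, DTT, glycerol, Tween20. Bound ligand filtered and counted by scintillation; 10 μM indole propanoate defines 100% inhibition, DMSO 0%.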
row,Structure (SMILES),inhibitory rate (%)
1,"O=C1Nc2cn(CC3CC3)nc2CN1c1cc(OCc2ncccc2F)ccc1Br [Example 360, 6-(2-bromo-5-((3-fluoropyridin-2-yl)methoxy)phenyl)-2-(cyclopropylmethyl)-2,4,6,7-tetrahydro-5H-pyrazolo[4,3-d]pyrimidin-5-one]",105
2,"Cc1ccc(OCc2ncccc2F)cc1-n1c(=O)[nH]c2cc(NS(=O)(=O)C3CC3)ccc2c1=O [Example 362, N-(3-(5-((3-fluoropyridin-2-yl)methoxy)-2-methylphenyl)-2,4-dioxo-1,2,3,4-tetrahydroquinazolin-7-yl)cyclopropanesulfonamide]",110
3,"Cc1ccc(OCc2ncccc2F)cc1-n1c(=O)[nH]c2cc(C(=O)NC3CC3)ccc2c1=O [Example 363, N-cyclopropyl-3-(5-((3-fluoropyridin-2-yl)methoxy)-2-methylphenyl)-2,4-dioxo-1,2,3,4-tetrahydroquinazoline-7-carboxamide]",97
4,"O=c1[nH]c2cccc(Cl)c2c(=O)n1-c1cc(OCc2ncccc2F)c(F)cc1Cl [Example 364, 5-chloro-3-(2-chloro-4-fluoro-5-((3-fluoropyridin-2-yl)methoxy)phenyl)quinazoline-2,4(1H,3H)-dione]",108
5,"O=c1[nH]c2ccc(Br)c(Cl)c2c(=O)n1-c1cc(OCc2ncccc2F)ccc1Cl [Example 368, 6-bromo-5-chloro-3-(2-chloro-5-((3-fluoropyridin-2-yl)methoxy)phenyl)quinazoline-2,4(1H,3H)-dione]",108
6,"O=c1[nH]c2ccccc2c(=O)n1-c1cc2c(cc1Cl)CCC(c1ncccc1F)O2 (stereo not shown) [Example 372, 3-(6-chloro-2-(3-fluoropyridin-2-yl)-3,4-dihydro-2H-chromen-7-yl)quinazoline-2,4(1H,3H)-dione]",95

# Results, then the compound that gave them:
row,inhibitory rate (%),Structure (SMILES)
1,97,"Cc1ccc(OCc2ncccc2F)cc1-n1c(=O)[nH]c2cccc(F)c2c1=O [Example 359, 5-fluoro-3-(5-((3-fluoropyridin-2-yl)methoxy)-2-methylphenyl)quinazoline-2,4(1H,3H)-dione]"
2,94,"COc1cccc2[nH]c(=O)n(-c3cc(OCc4ncccc4F)ccc3C)c(=O)c12 [Example 365, 3-(5-((3-fluoropyridin-2-yl)methoxy)-2-methylphenyl)-5-methoxyquinazoline-2,4(1H,3H)-dione]"
3,95,"COCCOc1cccc2[nH]c(=O)n(-c3cc(OCc4ncccc4F)ccc3C)c(=O)c12 [Example 366, 3-(5-((3-fluoropyridin-2-yl)methoxy)-2-methylphenyl)-5-(2-methoxyethoxy)quinazoline-2,4(1H,3H)-dione]"
4,100,"Cc1ccc(OCc2ncccc2F)cc1-n1c(=O)[nH]c2cccc(OCC3CC3)c2c1=O [Example 367, 5-(cyclopropylmethoxy)-3-(5-((3-fluoropyridin-2-yl)methoxy)-2-methylphenyl)quinazoline-2,4(1H,3H)-dione]"
5,106,"Cc1ccc(OCc2ncccc2F)cc1-n1c(=O)[nH]c2ccncc2c1=O [Example 369, 3-(5-((3-fluoropyridin-2-yl)methoxy)-2-methylphenyl)pyrido[4,3-d]pyrimidine-2,4(1H,3H)-dione]"
6,97,"Cc1ccc(OCc2ncccc2F)cc1-n1c(=O)[nH]c2cccc(C(F)(F)F)c2c1=O [Example 370, 3-(5-((3-fluoropyridin-2-yl)methoxy)-2-methylphenyl)-5-(trifluoromethyl)quinazoline-2,4(1H,3H)-dione]"
7,96,"Cc1ccc(OCc2ncccc2Br)cc1-n1c(=O)[nH]c2ccccc2c1=O [Example 371, 3-(5-((3-bromopyridin-2-yl)methoxy)-2-methylphenyl)quinazoline-2,4(1H,3H)-dione]"
